The values below come from ChEMBL document CHEMBL5385907, “Proline-Hinged α-Helical Peptides Sensitize Gram-Positive Antibiotics, Expanding Their Physicochemical Properties to Be Used as Gram-Negative Antibiotics” (J Med Chem, 2024).

Converted amounts (≈) assume the structure as drawn. The source made the active and inactive calls. The rule behind the calls is not given here. Residues, ends and D or L forms follow the SMILES beside them. *: point of attachment. X1 = CN(C)c1ccc2c(-c3ccc(C(=O)*)cc3C(=O)[O-])c3ccc(N(C)C)cc3[o+]c2c1; Octanoyl = CCCCCCCC(=O)* Bounds are passed on as bounds.

Data set [1] concerns Klebsiella pneumoniae. The experiment in a line: Antibacterial activity against Klebsiella pneumoniae ATCC 700603 assessed as inhibition of bacterial growth incubated for 18 hrs in presence of rifampicin with calcium and Mg2+ broth media by two fold serial dilution assay. It counts as functional, organism-based.
Data set [2] relates to Escherichia coli. The experiment in a line: Potentiation of rifampicin induced antibacterial activity against NDM1-producing carbapenem-resistant Escherichia coli infected CD1 mouse sepsis model assessed as reduction in bacterial colony forming unit in blood at 25 mg/kg,SC administrated after 2 hrs of post-infection in presence of rifampicin. Format: functional.
The test system of data set [3] is Klebsiella pneumoniae. The experiment in a line: Antibacterial activity against Klebsiella pneumoniae ATCC 700603 assessed as inhibition of bacterial growth incubated for 18 hrs by two fold serial dilution assay. Format: functional.
Data set [4] concerns Acinetobacter baumannii. The experiment in a line: Antibacterial activity against Acinetobacter baumannii ATCC 17978 assessed as inhibition of bacterial growth incubated for 18 hrs by two fold serial dilution assay. Format: functional.
Data set [5] concerns Acinetobacter baumannii. The experiment in a line: Antibacterial activity against Acinetobacter baumannii ATCC 17978 assessed as inhibition of bacterial growth incubated for 18 hrs in presence of rifampicin with calcium and Mg2+ broth media by two fold serial dilution assay. It counts as functional, organism-based.
A short description of data set [6]: Toxicity in male Sprague-Dawley rat assessed as reduction in body weight at 20 mg/kg,iv administration observed on day 14. The following applies: in vivo, 336 h, time 14 day. It counts as organism-based.
The nature of data set [7]: Toxicity in female Sprague-Dawley rat assessed as reduction in body weight at 20 to 60 mg/kg,iv administration observed on day 4. It counts as organism-based. Conditions: in vivo, 96 h, dose 20-60 mg/kg, time 4 day.
Data set [8] is described as follows: Toxicity in male Sprague-Dawley rat assessed as reduction in body weight at 40 mg/kg,iv administration observed on day 14 relative to control. It counts as organism-based. The arrangement: scale not given: the % may be the effect or the level left. The following applies: in vivo, 336 h, time 14 day.
Data set [9] deals with Escherichia coli. The experiment in a line: Antibacterial activity against Escherichia coli ATCC 25922 assessed as inhibition of bacterial growth incubated for 18 hrs in presence of rifampicin with calcium and Mg2+ broth media by two fold serial dilution assay. Format: functional, organism-based.
Data set [10] can be described thus: AUClast in Sprague-Dawley rat at 3 mg/kg,iv administration measured upto 24 hr by LC-MS/MS analysis. It counts as ADME, organism-based. The arrangement: time < 24 hrs, dose 3 mg/kg, route iv. Conditions: in vivo.
A short description of data set [11]: Toxicity in male Sprague-Dawley rat assessed as reduction in body weight at 60 mg/kg,iv administration observed on day 14 relative to control. Format: organism-based. More on the design: scale not given: the % may be the effect or the level left. Conditions: in vivo, 336 h, time 14 day.
The nature of data set [12]: Toxicity in female Sprague-Dawley rat assessed as no observed adverse effect level at iv administration and observed on day 14. Format: organism-based. The following applies: in vivo, time 14 day.
A short description of data set [13]: Toxicity in female Sprague-Dawley rat assessed as reduction in body weight at 20 to 60 mg/kg,iv administration observed on day 2. Format: organism-based. Conditions: in vivo, 48 h, dose 20-60 mg/kg, time 2 day.
Data set [14] can be described thus: Cytotoxicity against human HK-2 cells assessed as cell growth inhibition incubated for 24 hrs by WST-1 reagent microplate reader assay. Format: toxicity, cell-based. In general terms: Formazan colour is commonly taken as a measure of viable cells.
The nature of data set [15]: Toxicity in male Sprague-Dawley rat assessed as reduction in body weight at 20 mg/kg,iv administration and observed on day 2. Format: organism-based. The following applies: in vivo, 48 h, time 2 day.
Data set [16] deals with Escherichia coli. Description: Potentiation of rifampicin induced antibacterial activity against NDM1-producing carbapenem-resistant Escherichia coli infected CD1 mouse sepsis model assessed as reduction in bacterial colony forming unit in lung tissue at 25 mg/kg,SC administrated after 2 hrs of post-infection in presence of rifampicin. Format: functional, organism-based.

A short description of data set [17]: AUClast in CD1 mouse at 3 mg/kg,iv administration measured upto 1 hr by LC-MS/MS analysis. It counts as ADME, organism-based. The arrangement: dose 3 mg/kg, time < 1 hrs, route iv. The following applies: in vivo.
For data set [18], the system named is Cell membrane. Description: Induction of outer membrane permeabilization in Escherichia coli ATCC 25922 assessed as increase in fluorescence by measuring fold change by NPN-dye based fluorescence analysis. It counts as subcellular.
Data set [19] concerns Escherichia coli. Description: Antibacterial activity against Escherichia coli ATCC 25922 assessed as inhibition of bacterial growth incubated for 18 hrs by two fold serial dilution assay. Format: functional.
The nature of data set [20]: Clearance in Sprague-Dawley rat at 3 mg/kg,iv administration measured upto 24 hr by LC-MS/MS analysis. The following applies: in vivo. It counts as ADME, organism-based.
Data set [21] is described as follows: Nephrotoxicity in Sprague-Dawley rat assessed as increase in blood urea nitrogen level at 30 mg/kg,iv administration for 1 hr and measured after 25 hrs. Format: toxicity, organism-based. Conditions: in vivo, 26 h.
Data set [22] in a line: Clearance in CD1 mouse at 3 mg/kg,iv administration measured upto 1 hr by LC-MS/MS analysis. It counts as ADME, organism-based. The following applies: in vivo.
Data set [23] is described as follows: Nephrotoxicity in Sprague-Dawley rat assessed as […] in creatinine level at 30 mg/kg,iv administration for 1 hr and measured after 25 hrs. It counts as toxicity, organism-based. Conditions: in vivo, 26 h.
Data set [24] can be described thus: Volume of distribution in Sprague-Dawley rat at 3 mg/kg,iv administration measured upto 24 hr by LC-MS/MS analysis. Format: ADME, organism-based. The following applies: in vivo.
The test system of data set [25] is Escherichia coli. Description: Potentiation of rifampicin induced antibacterial activity against NDM1-producing carbapenem-resistant Escherichia coli infected CD1 mouse sepsis model assessed as reduction in bacterial colony forming unit in lung tissue at 25 mg/kg,SC administrated after 6 hrs of post-infection in presence of rifampicin. Format: functional, organism-based.

Data set [26] in a line: Clearance in CD1 mouse at 1 mg/kg,iv administration measured upto 1 hr by LC-MS/MS analysis. Format: ADME, organism-based. Conditions: in vivo.
In data set [27] the test system is Escherichia coli. Description: Antibacterial activity against Escherichia coli ATCC 25922 assessed as fold increase in bacterial growth inhibition incubated for 1 hr by propidium iodide staining based fluorescence assay. Format: functional.
A short description of data set [28]: Toxicity in male Sprague-Dawley rat assessed as no observed adverse effect level at iv administration and observed on day 14. Format: organism-based. Conditions: in vivo, time 14 day.
A short description of data set [29]: Hemolytic activity in human blood assessed as hemolysis incubated for 6 hrs by microplate reader analysis. Format: toxicity, tissue-based.
The subject of data set [30] is Escherichia coli. Description: Potentiation of rifampicin induced antibacterial activity against NDM1-producing carbapenem-resistant Escherichia coli infected CD1 mouse sepsis model assessed as reduction in bacterial colony forming unit in blood at 25 mg/kg,SC administrated after 6 hrs of post-infection in presence of rifampicin. It counts as functional.
Data set [31] in a line: AUClast in CD1 mouse at 10 mg/kg,iv administration measured upto 1 hr by LC-MS/MS analysis. Format: ADME, organism-based. More on the design: time < 1 hrs, dose 10 mg/kg, route iv. Conditions: in vivo.
Data set [32] can be described thus: AUClast in CD1 mouse at 1 mg/kg,iv administration measured upto 1 hr by LC-MS/MS analysis. The arrangement: time < 1 hrs, dose 1 mg/kg, route iv. Format: ADME, organism-based. The following applies: in vivo.
A short description of data set [33]: Clearance in CD1 mouse at 10 mg/kg,iv administration measured upto 1 hr by LC-MS/MS analysis. It counts as ADME, organism-based. The following applies: in vivo.
The nature of data set [34]: Hydrophobicity of the compound assessed as retention time by reversed-phase HPLC analysis. Format: physicochemical.
A short description of data set [35]: Drug localization in Acinetobacter baumannii ATCC 17978 assessed as increase in fluorescence at cytosol at 5 uM incubated for 30 mins by confocal laser scanning microscopy. Format: ADME, subcellular. The following applies: 0.5 h.
Data set [36] has as its system Cell membrane. Description: Induction of outer membrane disruption in Acinetobacter baumannii ATCC 17978 at 5 uM incubated for 30 mins by confocal laser scanning microscopy. Format: subcellular.
A short description of data set [37]: Drug localization in Escherichia coli ATCC 25922 assessed as increase in fluorescence at membrane at […] by fluorescence-activated cell sorting analysis. Format: ADME, cell membranes. Conditions: dose 0.13 µM.
Data set [38] can be described thus: Drug localization in Escherichia coli ATCC 25922 assessed as increase in fluorescence at membrane at […] incubated for 30 mins by confocal laser scanning microscopy. It counts as ADME, cell membranes. The following applies: 0.5 h, dose 0.63 µM.

Take `CCCCCCCC(=O)N[C@@H](CCCCN)C(=O)N[C@@H](CCCCN)C(=O)N[C@@H](C)C(=O)N[C@@H](CC(C)C)C(=O)N[C@@H](CCCCN)C(=O)N[C@@H](CC(C)C)C(=O)N[C@@H](C)C(=O)N[C@@H](CCCCN)C(=O)N[C@@H](CCCCN)C(=O)N1CCC[C@H]1C(=O)N[C@@H](CC(C)C)C(=O)N[C@@H](CCCCN)C(=O)N[C@@H](CC(C)C)C(=O)N[C@@H](CC(C)C)C(=O)N[C@@H](CCCCN)C(N)=O` (HELM PEPTIDE1{[CCCCCCCC(=O)[*:2]].K.K.A.L.K.L.A.K.K.P.L.K.L.L.K.[am]}$$$$V2.0): the result in the data set on Klebsiella pneumoniae [1], in the data set with Acinetobacter baumannii [5] and in the data set on Escherichia coli [9] was inactive. Also, the Activity in the data set with Escherichia coli [2] is over 4 log10CFU; in [6], “Non-Toxic”; in data set [7], “Non-Toxic”; in data set [8], 9%; in [11], 9%; in data set [13] it was “Toxic”. Moreover, the Activity result is “Toxic” in data set [15], 19 mg/dL in data set [21], 0.28 mg/dL in data set [23] and over 4 log10CFU in the data set with Escherichia coli [30]. Also, the figures for the minimum inhibitory concentration (MIC) with Klebsiella pneumoniae [3], in the data set on Acinetobacter baumannii [4] and in the data set on Escherichia coli [19] were over 80 µM, 20 µM (≈ 36.9 µg/mL) and over 80 µM, respectively. In addition, the AUClast in data set [10] was 246 ng·h/mL; in [17], 263 ng·h/mL; in [31], 941 ng·h/mL; in data set [32], 88.9 ng·h/mL. Further, the NOAEL at 336 h in data set [12] was found to be 60 mg/kg; in data set [28] it was 20 mg/kg. Moreover, the IC50 at 24 h in data set [14] stood at 86.9 µM. Moreover, the result in the data set with Escherichia coli [16] and with Escherichia coli [25] was Active. Further, the fold change (FC) in the data set on Cell membrane [18] and with Escherichia coli [27] was 10 each time. For the same compound, the clearance in data set [20] is 192 mL/min/kg; in [22] it was 182 mL/min/kg; in [26], 218 mL/min/kg; in [33], 190 mL/min/kg. Besides, the Vd in data set [24] is 3.07 L/kg. Also, the MHC10 in data set [29] was over 160 µM. Besides, the Retention_time in data set [34] is 18.1 min.
For `CCCCCCCC(=O)N[C@@H](CCCCNC(=O)c1ccc(-c2c3ccc(N(C)C)cc3[o+]c3cc(N(C)C)ccc23)c(C(=O)[O-])c1)C(=O)N[C@@H](CCCCN)C(=O)N[C@@H](C)C(=O)N[C@@H](CC(C)C)C(=O)N[C@@H](CCCCN)C(=O)N[C@@H](CC(C)C)C(=O)N[C@@H](C)C(=O)N[C@@H](CCCCN)C(=O)N[C@@H](CCCCN)C(=O)N1CCC[C@H]1C(=O)N[C@@H](CC(C)C)C(=O)N[C@@H](CCCCN)C(=O)N[C@@H](CC(C)C)C(=O)N[C@@H](CC(C)C)C(=O)N[C@@H](CCCCN)C(N)=O` (Octanoyl-K(X1)KALKLAKKPLKLLK-NH2), the Drug uptake entry in [35], in data set [37] and in [38] was “Active” throughout. Besides, in the data set with Cell membrane [36], the result was Active.

One may read the MIC as the lowest concentration that inhibits growth of the organism. A word on the NOAEL: it is the highest dose or exposure tested at which no adverse effect was seen. What is called IC50 is the concentration that gives 50% inhibition. The term clearance denotes a measure of how efficiently the substance is removed, as volume per time. For orientation: Vd means the apparent volume that relates the amount in the body to the concentration in plasma or blood.
